Reference: patent US6906035B2, “Antimicrobial cationic peptides” (priority 1995, dated 2005)
Several values for one entry are separate records, joined by “and”; a condition that tells them apart may be missing. Identical values can stand only once. Like-named read-outs stand apart in the source and are kept apart here.

What was measured:
P. aeruginosa [1] = tested on: P. aeruginosa
Procedure: (§1) FICs are performed by checkerboard titrations of peptides in one dimension of a microtiter plate, and of antibiotics in the other dimension, for example. The FIC is calculated by looking at the impact of one antibiotic on the MIC of the other and vice versa. […] Preferably, an FIC of less than 0.5 is obtained for synergism. As used herein, FIC can be determined as follows: [formula]
(§2) Briefly, cells were grown overnight at 37° C. in LB-S (Luria broth without any salt supplement) and diluted one in 10,000 in the same medium to give concentrations of about 10^4 to 10^5 CFU/ml. The broth dilutions were set up in a 96 well microtiter plate by putting 200 μl of LB-S containing the initial concentration of antibiotic or compound in column 1 and 100 μl of the same medium in columns 2-12. The compounds were diluted by taking 100 μl of broth from column 1 and mixing it with column 2, resulting in a one in two dilution. This was continued to column 10. Finally, 10 μl of bacteria were pipetted into columns 1-11, and the plates incubated overnight at 37° C. The next day the plates were scored for growth in the wells, and the MIC determined.

S. epidermis = conditions: S. epidermis
Procedure: as §1, §2

A. calcoaceticus [2] = assay: MIC, broth dilution in LB-S; format: cell-based; conditions: additional MICs
Procedure: (§3) The biological activity of the peptides can be determined by standard methods known to those of skill in the art, such as “minimal inhibitory concentration (MIC)” assay described in the present examples, whereby the lowest concentration at which no change in OD is observed for a given period of time is recorded as MIC. Alternatively, “fractional inhibitory concentration (FIC)” is also useful for determination of synergy between the peptides of the invention, or the peptides in combination with known antibiotics. FICs are performed by checkerboard titrations of peptides in one dimension of a microtiter plate, and of antibiotics in the other dimension, for example. The FIC is calculated by looking at the impact of one antibiotic on the MIC of the other and vice versa. […] Preferably, an FIC of less than 0.5 is obtained for synergism. As used herein, FIC can be determined as follows: [formula]
as §2

E. cloacae [3] = assay: MIC, broth dilution in LB-S; format: cell-based; conditions: additional MICs
Procedure: as §3, §2

E. coli = assay: MIC, broth dilution in LB-S; format: cell-based
Procedure: as §3, §2

E. faecalis = assay: MIC, broth dilution in LB-S; format: cell-based; conditions: Table 1b, separate set of experiments
Procedure: as §3, §2

K. pneumoniae = assay: MIC, broth dilution in LB-S; format: cell-based; conditions: additional MICs
Procedure: as §3, §2

S. aureus = assay: MIC, broth dilution in LB-S; format: cell-based
Procedure: as §3, §2

X maltophilia = assay: MIC, broth dilution in LB-S; format: cell-based; conditions: additional MICs
Procedure: as §3, §2

Candida albicans = assay: MIC, broth dilution in LB-S; format: cell-based
Procedure: as §1, §2

E. coli ML 35 = assay: Inner membrane permeabilization (ONPG hydrolysis by β-galactosidase); format: cell-based; conditions: E. coli ML 35, ONPG
Procedure: Inner membrane permeability was determined by measurement in E. coli ML 35 of β-galactosidase activity using ONPG as a substrate. Normally ONPG cannot pass across the cytoplasmic membrane to permit hydrolysis by the cytoplasmic enzyme β-galactosidase. However, cationic peptides, by permeabilizing the inner membrane, unmasks this enzyme leading to color development as ONP is released. […] Addition of citrate increased the lag time before the peptides were able to permeabilize the membranes. When the experiments were executed in cation adjusted media (CAMHB), the lag time was increased up to 30 minutes.

LPS = assay: Dansyl polymyxin displacement assay; format: binding; conditions: Dansyl polymyxin displacement from LPS
From the text: In addition, the peptides of SEQ ID NO: 5-8 also bound effectively to LPS with high affinity based on Dansyl polymyxin displacement assays (Table 5).

Red Blood Cells = assay: Red blood cell lysis; format: cell-based; conditions: concentration lysing Red Blood Cells
[4] = α helical content by CD spectra; format: physicochemical
Procedure: α Helical Content of Cationic Peptides by CD Spectra
The α helical content of the peptides were measured in buffer, liposomes and 20% Hexafluoroisopropanol (HFPIP). The liposomes constituted of POPC alone or POPC and POPC and 30% POPG (Table 7).

A. calcoaceticus [5] = conditions: agent alone
Procedure: as §1
(§4) Synergism is identified as an FIC of about ≦0.5.

E. cloacae [6] = conditions: agent alone
Procedure: as §1, §4

P. aeruginosa [7] = assay: microbe, parasite or virus in culture; conditions: agent alone
Procedure: as §1, §4

X. maltophila = assay: organism not typed; conditions: agent alone
Procedure: as §1, §4

## CC[C@H](C)[C@H](NC(=O)[C@H](CC(C)C)NC(=O)[C@H](C)NC(=O)[C@@H]1CCCN1C(=O)[C@H](CC(C)C)NC(=O)CNC(=O)[C@@H](NC(=O)[C@@H](NC(=O)[C@H](CC(C)C)NC(=O)[C@@H](NC(=O)[C@H](CCCCN)NC(=O)[C@H](CCCCN)NC(=O)[C@@H](NC(=O)[C@H](C)NC(=O)[C@@H](NC(=O)[C@@H](NC(=O)[C@H](CC(C)C)NC(=O)[C@H](CCCCN)NC(=O)[C@H](CCCCN)NC(=O)[C@@H](NC(=O)[C@H](Cc1ccccc1)NC(=O)[C@H](CO)NC(=O)[C@H](CCCCN)NC(=O)[C@H](Cc1c[nH]c2ccccc12)NC(=O)[C@@H](N)CCCCN)[C@@H](C)CC)[C@@H](C)O)[C@@H](C)O)C(C)C)C(C)C)[C@@H](C)O)[C@@H](C)O)C(=O)N[C@@H](CO)C(=O)O [MBI 29]
P. aeruginosa [1]; P. aeruginasa (H 103), additional MICs
  MIC: 4 µg/mL
P. aeruginosa [1]; P. aeruginosa (H187), Table 1a
  MIC: 5 µg/mL
P. aeruginosa [1]; P. aeruginosa (H187), Table 1b, separate set of experiments
  MIC: 16 µg/mL
P. aeruginosa [1]; P. aeruginosa (H187), Table 1b, separate set of experiments, listed as MBI 29^me
  MIC: 8 µg/mL
P. aeruginosa [1]; P. aeruginosa (H187), Table 6
  MIC P. aeruginosa (H187): 1.0 µg/mL
S. epidermis; Table 1a
  MIC: 10 µg/mL
S. epidermis; Table 1b, separate set of experiments
  MIC: 16 µg/mL
S. epidermis; Table 1b, separate set of experiments, listed as MBI 29^me
  MIC: 8 µg/mL
A. calcoaceticus [2]
  MIC: 4 µg/mL
E. cloacae [3]
  MIC: 2 µg/mL
E. coli; E. coli 0111:B4, additional MICs
  MIC: 2 µg/mL
E. coli; E. coli (UB1005), Table 1a
  MIC: 3 µg/mL
E. coli; E. coli (UB1005), Table 1b, separate set of experiments
  MIC: 4 µg/mL
E. coli; E. coli (UB 1005), Table 6
  MIC E. coli (UB 1005): 0.5 µg/mL
E. coli; E. coli. Bort, additional MICs
  MIC: 6 µg/mL
E. faecalis
  MIC: 32 µg/mL
E. faecalis; listed as MBI 29^me
  MIC: ≧64
K. pneumoniae
  MIC: 16 µg/mL
S. aureus; S. aureus (K 147), Table 1a
  MIC: 20 µg/mL
S. aureus; S. aureus (K147), Table 1b, separate set of experiments
  MIC: 32 µg/mL
S. aureus; S. aureus (K147), Table 1b, separate set of experiments, listed as MBI 29^me
  MIC: 16 µg/mL
S. aureus; S. aureus (SAP0017), Table 1a
  MIC: 18 µg/mL
S. aureus; S. aureus (SAP0017), Table 1b, separate set of experiments
  MIC: 32 µg/mL
S. aureus; S. aureus (SAP0017), Table 1b, separate set of experiments, listed as MBI 29^me
  MIC: 16 µg/mL
X maltophilia
  MIC: 3 µg/mL
Candida albicans; Candida albicans (CAN105), Table 1b, separate set of experiments
  MIC: 32 µg/mL
Candida albicans; Candida alibicans (CAN105), Table 1a
  MIC: 40 µg/mL
E. coli ML 35
  Lag Time: 66 s
  Rate of Hydrolysis: 0.21 ΔAU min^−1
LPS
  1max: 40%
Red Blood Cells
  RBC Lysis: >55 µg/mL
[4]; 20% HFIP
  % α helicity: 50%
[4]; Buffer
  % α helicity: 0%
[4]; POPC Liposomes
  % α helicity: 16%
[4]; POPC/POPG Liposomes (30% POPG)
  % α helicity: 8%
A. calcoaceticus [5]; A. calcoaceticus isolate 1, strain ATCC 23055
  MIC: 32 µg/mL and 64 µg/mL
A. calcoaceticus [5]; A. calcoaceticus isolate 7, strain 8222
  MIC: 16 µg/mL and 32 µg/mL
A. calcoaceticus [5]; A. calcoaceticus isolate 8, strain 8223
  MIC: 16 µg/mL and 32 µg/mL
A. calcoaceticus [5]; A. calcoaceticus isolate 9, strain 8224
  MIC: 16 µg/mL and 32 µg/mL
A. calcoaceticus [5]; A. calcoaceticus isolate 10, strain 8225
  MIC: 16 µg/mL and 32 µg/mL
A. calcoaceticus [5]; A. calcoaceticus isolate 11, strain 8226
  MIC: 16 µg/mL and 32 µg/mL
E. cloacae [6]; E. cloacae isolate 12, strain ATCC 13047
  MIC: 32 µg/mL and 64 µg/mL
E. cloacae [6]; E. cloacae isolate 14, strain 938-2
  MIC: 32 µg/mL and 16 µg/mL
E. cloacae [6]; E. cloacae isolate 15, strain B5546
  MIC: 32 µg/mL
E. cloacae [6]; E. cloacae isolate 17, strain R4148-2
  MIC: 16 µg/mL and 32 µg/mL
E. cloacae [6]; E. cloacae isolate 18, strain 3077
  MIC: 32 µg/mL
E. cloacae [6]; E. cloacae isolate 19, strain 3356
  MIC: 32 µg/mL
P. aeruginosa [7]; P. aeruginosa isolate 23, strain ATCC 27853
  MIC: 32 µg/mL and 64 µg/mL
P. aeruginosa [7]; P. aeruginosa isolate 24, strain 34
  MIC: 32 µg/mL and 16 µg/mL
P. aeruginosa [7]; P. aeruginosa isolate 25, strain 923-1
  MIC: 32 µg/mL and 64 µg/mL
P. aeruginosa [7]; P. aeruginosa isolate 26, strain 3101
  MIC: 32 µg/mL and 64 µg/mL
P. aeruginosa [7]; P. aeruginosa isolate 29, strain 15545
  MIC: 32 µg/mL and 64 µg/mL
P. aeruginosa [7]; P. aeruginosa isolate 32, strain W2897-1
  MIC: 32 µg/mL and 64 µg/mL
X. maltophila; X. maltophila isolate 35, strain 6
  MIC: 32 µg/mL and 16 µg/mL
X. maltophila; X. maltophila isolate 36, strain 16
  MIC: 32 µg/mL
X. maltophila; X. maltophila isolate 37, strain 3095
  MIC: 64 µg/mL
X. maltophila; X. maltophila isolate 38, strain 7901
  MIC: 64 µg/mL
X. maltophila; X. maltophila isolate 39, strain B3110.1
  MIC: 32 µg/mL
X. maltophila; X. maltophila isolate 40, strain R1302-1
  MIC: 32 µg/mL and 64 µg/mL
X. maltophila; X. maltophila isolate 41, strain R4230
  MIC: 16 µg/mL and 32 µg/mL
X. maltophila; X. maltophila isolate 43, strain TF29-2
  MIC: 16 µg/mL and 32 µg/mL
